According to patent US7998965B2, “Glutamate aggrecanase inhibitors” (Wyeth LLC, priority 2005, dated 2011):

What was measured:
[1] = target: T1, purified recombinant human Aggrecanase-1 (rAgg1) (Homo sapiens, UniProt O75173); experiment: In vitro fluorescence screen for Aggrecanase-1 inhibitors; assay type: biochemical; conditions: Table 1; for IC50: read-out: Agg1 IC50; for Ki: enzyme not given, column follows Agg1 IC50, read-out: Ki
T1 sequence (O75173 213-837): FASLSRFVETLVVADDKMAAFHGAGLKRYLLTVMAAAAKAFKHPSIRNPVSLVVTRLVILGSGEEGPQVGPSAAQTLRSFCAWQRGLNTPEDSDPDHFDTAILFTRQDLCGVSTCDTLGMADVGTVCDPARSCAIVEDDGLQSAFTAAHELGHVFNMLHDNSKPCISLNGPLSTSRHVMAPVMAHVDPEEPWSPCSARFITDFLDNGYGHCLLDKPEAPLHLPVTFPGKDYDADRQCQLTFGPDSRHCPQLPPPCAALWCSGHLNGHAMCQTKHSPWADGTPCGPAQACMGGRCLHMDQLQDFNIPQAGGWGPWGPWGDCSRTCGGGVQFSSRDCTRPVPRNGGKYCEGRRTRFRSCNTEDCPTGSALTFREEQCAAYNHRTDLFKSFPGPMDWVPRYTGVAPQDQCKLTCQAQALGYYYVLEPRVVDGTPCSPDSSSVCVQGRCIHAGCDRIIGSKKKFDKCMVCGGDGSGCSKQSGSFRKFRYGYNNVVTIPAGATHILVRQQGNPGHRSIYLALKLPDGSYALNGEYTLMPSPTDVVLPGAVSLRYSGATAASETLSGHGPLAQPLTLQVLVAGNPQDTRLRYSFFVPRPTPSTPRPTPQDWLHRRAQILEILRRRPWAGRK

[2] = target: T2, purified recombinant human Aggrecanase-2 (Ag2t-Phe628-Strep) (Homo sapiens, UniProt Q9UNA0); experiment: In vitro fluorescence screen for Aggrecanase-2 inhibitors; assay type: biochemical; conditions: Table 1; read-out: Agg 2 IC50
T2 construct: the form used is denoted as Ag2t-Phe628-Strep (MW=41,737)
T2 sequence (Q9UNA0 262-628): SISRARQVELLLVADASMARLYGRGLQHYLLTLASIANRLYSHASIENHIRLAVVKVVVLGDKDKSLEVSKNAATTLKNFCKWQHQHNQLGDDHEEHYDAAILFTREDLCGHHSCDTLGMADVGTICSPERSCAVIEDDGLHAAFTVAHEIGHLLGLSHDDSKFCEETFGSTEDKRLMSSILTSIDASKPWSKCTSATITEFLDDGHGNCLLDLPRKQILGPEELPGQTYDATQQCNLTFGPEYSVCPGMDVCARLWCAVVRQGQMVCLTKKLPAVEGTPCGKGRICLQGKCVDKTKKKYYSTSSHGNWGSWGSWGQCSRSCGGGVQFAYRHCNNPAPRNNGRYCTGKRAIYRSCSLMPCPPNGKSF

[3] = target: T3, recombinant human catalytic domain of MMP-13 (Homo sapiens, UniProt P45452); experiment: In vitro fluorescence assay of MMP-13 activity; assay type: biochemical; conditions: Table 1; unit inferred
T3 construct: catalytic domain of MMP-13 (165 amino acids, residues 104-268, 19 kDa)

[4] = target: T4, recombinant human catalytic domain of MMP-14 (Homo sapiens, UniProt P50281); experiment: In vitro fluorescence assay of MMP-14 activity; assay type: biochemical; conditions: Table 1; for MMP-14: unit not given; for IC50: unit inferred
T4 construct: 177 amino acids corresponding to Tyr89-Gly265 of mature human enzyme; purchased Chemicon International, Inc. CC1041

[5] = target: T5, MMP-1 (Homo sapiens, UniProt P03956); experiment: MMP-1 of Table 1; assay type: biochemical; conditions: for MMP-1: unit not given; for IC50: unit inferred
T5 sequence (P03956 100-469): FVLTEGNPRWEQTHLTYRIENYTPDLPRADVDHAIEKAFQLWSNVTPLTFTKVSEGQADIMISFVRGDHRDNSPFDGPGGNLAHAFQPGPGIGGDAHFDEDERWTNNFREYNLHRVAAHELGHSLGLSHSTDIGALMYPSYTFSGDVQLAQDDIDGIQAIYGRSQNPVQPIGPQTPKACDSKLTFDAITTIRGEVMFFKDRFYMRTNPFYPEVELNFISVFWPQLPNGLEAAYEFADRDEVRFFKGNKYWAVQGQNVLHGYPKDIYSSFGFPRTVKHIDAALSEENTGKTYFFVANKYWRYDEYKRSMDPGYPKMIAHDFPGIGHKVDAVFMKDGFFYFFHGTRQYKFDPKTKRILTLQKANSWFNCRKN

[6] = target: T6, recombinant human MMP-2 (Homo sapiens, UniProt P08253); experiment: In vitro fluorescence assay of MMP-2 activity
T6 sequence (P08253 110-660): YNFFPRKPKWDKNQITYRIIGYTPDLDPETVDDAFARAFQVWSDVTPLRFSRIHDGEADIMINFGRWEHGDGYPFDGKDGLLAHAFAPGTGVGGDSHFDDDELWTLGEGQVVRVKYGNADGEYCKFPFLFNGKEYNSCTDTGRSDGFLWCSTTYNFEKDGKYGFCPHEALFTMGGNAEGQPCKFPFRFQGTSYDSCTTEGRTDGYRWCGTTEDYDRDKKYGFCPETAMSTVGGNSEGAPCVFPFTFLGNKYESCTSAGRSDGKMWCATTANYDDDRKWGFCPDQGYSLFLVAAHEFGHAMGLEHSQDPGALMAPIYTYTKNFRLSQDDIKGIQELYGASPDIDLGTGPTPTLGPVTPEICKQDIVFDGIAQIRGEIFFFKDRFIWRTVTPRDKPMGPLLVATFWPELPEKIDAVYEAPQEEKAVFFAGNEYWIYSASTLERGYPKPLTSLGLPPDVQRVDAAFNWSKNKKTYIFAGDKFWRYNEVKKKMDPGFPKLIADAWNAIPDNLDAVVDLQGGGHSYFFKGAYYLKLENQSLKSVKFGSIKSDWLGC

[7] = tested on: bovine articular cartilage treated with Interleukin 1 alpha (IL-1α); experiment: Bovine articular cartilage explant cultures: inhibition of degradation of proteoglycan; assay type: cell-based; conditions: inhibitory effect expressed as percentage, concentration not printed
Excerpt: This in vitro procedure was used to evaluate the effect and relative potencies of small molecule compounds to inhibit the degradation of proteoglycan in articular cartilage treated with Interleukin 1 alpha (IL-1α). Treatment of articular cartilage with IL 1α induces expression of a cascade of enzymes that initiates cartilage matrix degradation. This assay was utilized to select small molecule compounds that inhibit the enzyme activity and protects cartilage matrix degradation.
Articular cartilage: bovine metacarpal joints were disinfected with 10% Wescodyne followed by 70% ethanol. 6 mm articular cartilage discs were prepared and rinsed once in PBS and medium, respectively. The discs were cultured in a stirring flask with serum-free medium for 5 days for equilibrium with one medium change. Small molecule compounds: stock solutions of test small molecule compounds (usually at 5 mg/ml) were prepared in DMSO. Working solutions were diluted with DMSO and generally ranged from 0.1 μg/ml to 10 ug/ml. The DMSO stocks were stored at […]. Articular cartilage explant culture medium: DMEM, 2 mM glutamax, 100 U/ml of antibiotic and antimycotic, 50 μg/ml ascorbate and 10 mM Hepes (pH-7.0). Proteoglycan content-Dimethyl methylene blue (DMMB) solution: […] DMMB, 10 ml 100% ethanol, 29.5 ml of 1M NaOH, 3.5 ml of 98% formic acid and water to 1 L. Chondroitin sulphate sodium salt: 1.56-200 ug/ml serial dilutions.
For the explant culture, cartilage discs were cultured in serum-free medium for 48 h or more. Discs were weighed and transferred to a 96-well plate, 1 disc per-well. 0.2 ml of medium containing 5 ng/ml of IL-1 and different concentrations of compounds were added to each well, with 3 wells allocated for each treatment. The medium was collected at days 1, 2, & 3 and replaced accordingly.
For the DMMB assay, conditioned medium (CM) samples were diluted with medium. 10 ul of each standard or diluted sample was added in duplicate into a 96-well-plate and 200 μl of DMMB solution was added into each well. Absorbance at 520 nm was measured for each well. Proteoglycan contents in CM were calculated daily.
The proteoglycan contents are expressed as ug per mg of cartilage. The inhibitory effect of the compounds is expressed as percentage. (See, Tortorella, M. D. et al., Science 1999, 284, 1664-1666).

Row | IC50 [1] [nM] | IC50 [2] [nM] | IC50 [3] [nM] | MMP-14 [4] | MMP-1 [5] | IC50 [6] [nM] | IC50 [4] [nM] | IC50 [5] [nM] | Ki [1] [nM] | Compound | bovine ([7]; Table 1, first of two columns headed bovine) [%] | bovine ([7]; Table 1, second of two columns headed bovine) [%]
1 | 30 | 160 | > 50000 | no inh | no inh | 18600 |  |  |  | CC(C)(Cc1ccc(F)cc1)NC(=O)C(CCC(=O)O)NC(=O)c1ccc(-c2ccccc2)cc1 (racemic) [Example 8GGGG, N^2-(biphenyl-4-ylcarbonyl)-N^1-[2-(4-fluorophenyl)-1,1-dimethylethyl]-α-glutamine] |  | 
2 | 150 | 740 | > 50000 |  |  | 29800 | > 200000 | > 50000 |  | O=C(O)CC[C@H](NC(=O)c1ccc(-c2ccccc2)cc1)C(=O)NC1Cc2ccccc2C1 [Example 6A, N^2-(1,1′-biphenyl-4-ylcarbonyl)-N^1-2,3-dihydro-1H-inden-2-yl-L-α-glutamine] |  | 
3 | 74 | 650 | 19000 |  | no inh | 2300 | ~25000 |  |  | O=C(O)CC[C@H](NC(=O)c1ccc(-c2ccccc2)cc1)C(=O)NCc1ccc(Cl)c(Cl)c1 [Example 8BB, N^2-(1,1′-biphenyl-4-ylcarbonyl)-N^1-(3,4-dichlorobenzyl)-L-α-glutamine] |  | 
4 | 32 | 700 | > 50000 | no inh |  |  |  | > 200000 | 130 | CCC(C)NC(=O)[C@H](CCC(=O)O)NC(=O)c1ccc(-c2ccccc2)cc1 (stereo partly drawn) [Example 8BBB, N^2-(1,1′-biphenyl-4-ylcarbonyl)-N^1-(sec-butyl)-L-α-glutamine] | 35 | 0
5 | < 30 | 133 | ~50000 | no inh |  | 9000 |  | > 200000 | 14 | CC(C)(Cc1ccc(Cl)cc1)NC(=O)[C@H](CCC(=O)O)NC(=O)c1ccc(-c2ccccc2)cc1 [Example 8NN, N^2-(biphenyl-4-ylcarbonyl)-N^1-[2-(4-chlorophenyl)-1,1-dimethylethyl]-L-α-glutamine] |  | 
6 | < 30 | 85 | ~50000 |  |  | 6000 | > 66600 | > 200000 | 10 | CC(C)(Cc1ccccc1)NC(=O)[C@H](CCC(=O)O)NC(=O)c1ccc(-c2ccccc2)cc1 [Example 8PP, N^2-(biphenyl-4-ylcarbonyl)-N^1-(1,1-dimethyl-2-phenylethyl)-L-α-glutamine] |  | 
7 | 100 | 800 | ~50000 |  | no inh | 12400 | > 66600 |  |  | O=C(O)CC[C@H](NC(=O)c1ccc(-c2ccccc2)cc1)C(=O)NCCc1ccc(F)cc1 [Example 8SS, N^2-(biphenyl-4-ylcarbonyl)-N^1-[2-(4-fluorophenyl)ethyl]-L-α-glutamine] |  | 
8 | 61 | 660 | ~50000 |  | no inh | 8900 | > 200000 |  | 60 | CC(C)(C)CNC(=O)[C@H](CCC(=O)O)NC(=O)c1ccc(-c2ccccc2)cc1 [Example 8UUU, N^2-(biphenyl-4-ylcarbonyl)-N^1-(2,2-dimethylpropyl)-L-α-glutamine] |  | 
9 | 98 | 3000 | ~50000 |  | no inh |  | > 50000 |  |  | O=C(O)CC[C@H](NC(=O)c1ccc(-c2ccccc2)cc1)C(=O)NCc1cccc(-c2ccccn2)c1 [Example 10Q, N^2-(biphenyl-4-ylcarbonyl)-N^1-(3-pyridin-2-ylbenzyl)-L-α-glutamine] |  | 
10 | < 10 | 25 | 29 |  |  |  | 110 | 1500 |  | COc1cccc(CCNC(=O)[C@H](CCC(=O)NO)NC(=O)c2ccc(-c3ccccc3)cc2)c1 [Example 33C, N^2-(1,1′-biphenyl-4-ylcarbonyl)-N^5-hydroxy-N^1-[2-(3-methoxyphenyl)ethyl]-L-α-glutamamide] |  | 
